Literature values as cited in US20130190368A1, “NOVEL POLYMORPHS OF FEBUXOSTAT” (HETERO RESEARCH FOUNDATION, priority 2010, published 2013).

Details: compared to allopurinol

Structure (SMILES): Cc1nc(-c2ccc(OCC(C)C)c(C#N)c2)sc1C(=O)O [febuxostat, 2-[3-cyano-4-(2-methylpropoxy)phenyl]-4-methyl-5-thiazolecarboxylic acid]
- amount of initial gout flares or surface area of gout tophi: no difference
- individuals with decreased levels of uric acid: more individuals treated with febuxostat had decreased levels of uric acid
